According to paper PMC11576293, “New series of 4,6-diaryl pyrimidines: facile synthesis and antiproliferative activity as dual EGFR/VEGFR-2 inhibitors” (Frontiers in Chemistry, 2024):

Key:
Test in all cases: NCI-60 single-dose screen
Type in all cases: cell-based
786-0 = conditions: Homo sapiens, single dose 10 µM, '-' = no inhibition, read-out: % Growth Inhibition
Outline: (§1)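 Single concentration (10 μM) per compound, assayed by the NCI DTP against its 60-line panel covering leukemia, lung, colon, CNS, melanoma, ovarian, renal, prostate and breast cancers.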

A498 = conditions: Homo sapiens, single dose 10 µM, '-' = no inhibition, read-out: % Growth Inhibition
Outline: as §1

A549/ATCC = conditions: Homo sapiens, single dose 10 µM, '-' = no inhibition, read-out: % Growth Inhibition
Outline: as §1

ACHN 1 = conditions: Homo sapiens, single dose 10 µM, '-' = no inhibition, read-out: % Growth Inhibition
Outline: as §1

BT-549 = conditions: Homo sapiens, single dose 10 µM, '-' = no inhibition, read-out: % Growth Inhibition
Outline: as §1

CCRF-CEM = conditions: Homo sapiens, single dose 10 µM, '-' = no inhibition, read-out: % Growth Inhibition
Outline: as §1

COLO 205 = conditions: Homo sapiens, single dose 10 µM, '-' = no inhibition, read-out: % Growth Inhibition
Outline: as §1

DU-145 = conditions: Homo sapiens, single dose 10 µM, '-' = no inhibition, read-out: % Growth Inhibition
Outline: as §1

EKVX = conditions: Homo sapiens, single dose 10 µM, '-' = no inhibition, read-out: % Growth Inhibition
Outline: as §1

HCC-2998 = conditions: Homo sapiens, single dose 10 µM, '-' = no inhibition, read-out: % Growth Inhibition
Outline: as §1

HCT-116 = conditions: Homo sapiens, single dose 10 µM, '-' = no inhibition, read-out: % Growth Inhibition
Outline: as §1

HL-60(TB) = conditions: Homo sapiens, single dose 10 µM, '-' = no inhibition, read-out: % Growth Inhibition
HOP-62 = conditions: Homo sapiens, single dose 10 µM, '-' = no inhibition, read-out: % Growth Inhibition
Outline: as §1

HOP-92 = conditions: Homo sapiens, single dose 10 µM, '-' = no inhibition, read-out: % Growth Inhibition
Outline: as §1

HS 578T = conditions: Homo sapiens, single dose 10 µM, '-' = no inhibition, read-out: % Growth Inhibition
Outline: as §1

HT29 = conditions: Homo sapiens, HT-29, single dose 10 µM, '-' = no inhibition, read-out: % Growth Inhibition
Outline: as §1

IGROV1 = conditions: Homo sapiens, IGROV-1, single dose 10 µM, '-' = no inhibition, read-out: % Growth Inhibition
Outline: as §1

K-562 = conditions: Homo sapiens, K562, single dose 10 µM, '-' = no inhibition, read-out: % Growth Inhibition
Outline: as §1

KM12 = conditions: Homo sapiens, single dose 10 µM, '-' = no inhibition, read-out: % Growth Inhibition
Outline: as §1

M14 = conditions: Homo sapiens, single dose 10 µM, '-' = no inhibition, read-out: % Growth Inhibition
Outline: as §1

MALME-3M = conditions: Homo sapiens, single dose 10 µM, '-' = no inhibition, read-out: % Growth Inhibition
Outline: as §1

MCF7 = conditions: Homo sapiens, single dose 10 µM, '-' = no inhibition, read-out: % Growth Inhibition
Outline: as §1

MDA-MB-435 = conditions: Homo sapiens, single dose 10 µM, '-' = no inhibition, read-out: % Growth Inhibition
Outline: as §1

MDA-MB-468 = conditions: Homo sapiens, single dose 10 µM, '-' = no inhibition, read-out: % Growth Inhibition
Outline: as §1

NCI-H23 = conditions: Homo sapiens, single dose 10 µM, '-' = no inhibition, read-out: % Growth Inhibition
Outline: as §1

NCI-H322M = conditions: Homo sapiens, single dose 10 µM, '-' = no inhibition, read-out: % Growth Inhibition
Outline: as §1

NCI-H460 = conditions: Homo sapiens, single dose 10 µM, '-' = no inhibition, read-out: % Growth Inhibition
Outline: as §1

OVCAR-4 = conditions: Homo sapiens, single dose 10 µM, '-' = no inhibition, read-out: % Growth Inhibition
Outline: as §1

OVCAR-5 = conditions: Homo sapiens, single dose 10 µM, '-' = no inhibition, read-out: % Growth Inhibition
Outline: as §1

OVCAR-8 = conditions: Homo sapiens, single dose 10 µM, '-' = no inhibition, read-out: % Growth Inhibition
Outline: as §1

PC-3 = conditions: Homo sapiens, single dose 10 µM, '-' = no inhibition, read-out: % Growth Inhibition
Outline: as §1

RPMI-8226 = conditions: Homo sapiens, single dose 10 µM, '-' = no inhibition, read-out: % Growth Inhibition
Outline: as §1

RXF 393 = conditions: Homo sapiens, single dose 10 µM, '-' = no inhibition, read-out: % Growth Inhibition
Outline: as §1

SF-268 = conditions: Homo sapiens, single dose 10 µM, '-' = no inhibition, read-out: % Growth Inhibition
Outline: as §1

SF-295 = conditions: Homo sapiens, single dose 10 µM, '-' = no inhibition, read-out: % Growth Inhibition
Outline: as §1

SF-539 = conditions: Homo sapiens, single dose 10 µM, '-' = no inhibition, read-out: % Growth Inhibition
Outline: as §1

SK-MEL-28 = conditions: Homo sapiens, single dose 10 µM, '-' = no inhibition, read-out: % Growth Inhibition
Outline: as §1

SK-MEL-2 = conditions: Homo sapiens, single dose 10 µM, '-' = no inhibition, read-out: % Growth Inhibition
Outline: as §1

SK-MEL-5 = conditions: Homo sapiens, single dose 10 µM, '-' = no inhibition, read-out: % Growth Inhibition
Outline: as §1

SK-OV-3 = conditions: Homo sapiens, single dose 10 µM, '-' = no inhibition, read-out: % Growth Inhibition
Outline: as §1

SN12C = conditions: Homo sapiens, single dose 10 µM, '-' = no inhibition, read-out: % Growth Inhibition
Outline: as §1

SNB-75 = conditions: Homo sapiens, single dose 10 µM, '-' = no inhibition, read-out: % Growth Inhibition
Outline: as §1

SR = conditions: Homo sapiens, single dose 10 µM, '-' = no inhibition, read-out: % Growth Inhibition
Outline: as §1

SW-620 = conditions: Homo sapiens, single dose 10 µM, '-' = no inhibition, read-out: % Growth Inhibition
Outline: as §1

T-47D = conditions: Homo sapiens, T47D, single dose 10 µM, '-' = no inhibition, read-out: % Growth Inhibition
Outline: as §1

TK-10 = conditions: Homo sapiens, single dose 10 µM, '-' = no inhibition, read-out: % Growth Inhibition
Outline: as §1

U251 = conditions: Homo sapiens, U-251, single dose 10 µM, '-' = no inhibition, read-out: % Growth Inhibition
Outline: as §1

UACC-257 = conditions: Homo sapiens, single dose 10 µM, '-' = no inhibition, read-out: % Growth Inhibition
Outline: as §1

SMILES: COc1ccc(-c2cc(-c3ccc(Cl)cc3)nc(SC(C)C)n2)cc1OC [Compound 26, 4-(4-Chlorophenyl)-2-(isopropylthio)-6-(3,4-dimethoxyphenyl)pyrimidine]
- inhibition at 10 µM (786-0): < 0%
- inhibition at 10 µM (A498): < 0%
- inhibition at 10 µM (A549/ATCC): 0.02%
- inhibition at 10 µM (ACHN 1): < 0%
- inhibition at 10 µM (BT-549): < 0%
- inhibition at 10 µM (CCRF-CEM): 1.08%
- inhibition at 10 µM (COLO 205): < 0%
- inhibition at 10 µM (DU-145): < 0%
- inhibition at 10 µM (EKVX): 4.59%
- inhibition at 10 µM (HCC-2998): < 0%
- inhibition at 10 µM (HCT-116): 2.84%
- inhibition at 10 µM (HL-60(TB)): 14.5%
- inhibition at 10 µM (HOP-62): < 0%
- inhibition at 10 µM (HOP-92): < 0%
- inhibition at 10 µM (HS 578T): < 0%
- inhibition at 10 µM (HT29): 13.1%
- inhibition at 10 µM (IGROV1): < 0%
- inhibition at 10 µM (K-562): 6.67%
- inhibition at 10 µM (KM12): 1.72%
- inhibition at 10 µM (M14): < 0%
- inhibition at 10 µM (MALME-3M): < 0%
- inhibition at 10 µM (MCF7): 18.1%
- inhibition at 10 µM (MDA-MB-435): 1.25%
- inhibition at 10 µM (MDA-MB-468): 7.33%
- inhibition at 10 µM (NCI-H23): < 0%
- inhibition at 10 µM (NCI-H322M): 1.11%
- inhibition at 10 µM (NCI-H460): < 0%
- inhibition at 10 µM (OVCAR-4): < 0%
- inhibition at 10 µM (OVCAR-5): < 0%
- inhibition at 10 µM (OVCAR-8): 4.2%
- inhibition at 10 µM (PC-3): < 0%
- inhibition at 10 µM (RPMI-8226): 0.53%
- inhibition at 10 µM (RXF 393): < 0%
- inhibition at 10 µM (SF-268): < 0%
- inhibition at 10 µM (SF-295): < 0%
- inhibition at 10 µM (SF-539): < 0%
- inhibition at 10 µM (SK-MEL-28): < 0%
- inhibition at 10 µM (SK-MEL-2): < 0%
- inhibition at 10 µM (SK-MEL-5): < 0%
- inhibition at 10 µM (SK-OV-3): < 0%
- inhibition at 10 µM (SN12C): 8.05%
- inhibition at 10 µM (SNB-75): < 0%
- inhibition at 10 µM (SR): 12.6%
- inhibition at 10 µM (SW-620): 2.64%
- inhibition at 10 µM (T-47D): 14.2%
- inhibition at 10 µM (TK-10): < 0%
- inhibition at 10 µM (U251): < 0%
- inhibition at 10 µM (UACC-257): 0.69%
